Test results: patent US20210371413A1, “POLYCYCLIC AMIDES AS CYTOTOXIC AGENTS” (FEMTOGENIX LIMITED, priority 2018, published 2021)
Read-outs that look alike come from different tables or passages of the source.

Assays:
Format in all cases: cell-based
[1] = test system: U138-MG (Glioblastoma); assay: In vitro cytotoxicity, MTT assay, U138-MG; settings: Homo sapiens, read-out: Cytotoxicity
Method: (§1) The in vitro cytotoxicity of a selection of compounds were evaluated in a panel of cell lines using the standard MTT assay for a 72 hour incubation period (Table 2). Free payloads produced cytotoxicities in the nanomolar range.
(§2) Tumor cell lines were maintained in RPMI1640 medium supplemented with 10% heat-inactivated fetal bovine serum, 2 mM L-glutamine and 1 mM sodium pyruvate. 1800 cells per well were seeded in a volume of 180 μl in a 96-well flat bottom polystyrene plate. The cells were allowed to adhere overnight at 37° C. in a CO2 incubator. Ligands were initially formulated in DMSO, and stocks stored at −80° C. They were then further formulated at lox concentration in RPMI1640 medium. 20 ul of diluted samples were added into each treatment well. On each plate, blank wells with no cells, and untreated wells containing cells, were included. Plates were then cultured at 37° C. in a CO2 incubator for 72 hrs. Cytotoxicity was evaluated using a tetrazolium salt-based assay, the MTT assay. After 72 hours, the supernatant was removed from each well and 200 μl of a sterile filtered 500 μg/ml MTT solution in water added to each well. The plates were then incubated at 37° C. in a CO2 incubator for 4 hrs. The supernatant was then removed and the formazan crystals formed solubilized by adding 150 μl of DMSO to each well. The plate was then read on a plate reader at 540 nm, and percentage cell survival calculated as follows: ((mean absorbance treated wells at concentration x−mean absorbance blank wells)+(mean absorbance untreated wells at concentration x−mean absorbance blank wells))×100. Data were plotted as concentration in nM vs. % cell survival in Microsoft Excel, and IC50 values (concentration where cell survival is reduced by a half) were determined from the graph.

[2] = test system: A431 (Skin); assay: In vitro cytotoxicity, MTT assay, A431; settings: Homo sapiens, read-out: Cytotoxicity
Method: as §1, §2

[3] = test system: REH (ALL); assay: In vitro cytotoxicity, MTT assay, REH; settings: read-out: Cytotoxicity
Method: as §1, §2

[4] = U138-MG (Glioblastoma), MTT, 72 hour incubation
[5] = A-431, A431 (Skin), MTT, 72 hour incubation
[6] = REH (ALL), MTT, 72 hour incubation

| SMILES | IC50 [1, 4] [nM] | IC50 [2, 5] [nM] | IC50 [3, 6] [nM] | IC50 ([1]; U138-MG, 72 h) [nM] | IC50 ([2]; A-431, 72 h) [nM] | IC50 ([3]; 72 h) [nM] |
| --- | --- | --- | --- | --- | --- | --- |
| COC(=O)c1nc2cc(NC(=O)c3nc(NC(=O)CCCOc4cc5c(cc4OC)C(=O)N4CCCC[C@H]4CN5)cn3C)ccc2o1 [Compound 61, Methyl (S)-5-(4-(4-((2-methoxy-12-oxo-5,6,6a,7,8,9,10,12-octahydrobenzo[e]pyrido[1,2-a][1,4]diazepin-3-yl)oxy)butanamido)-1-methyl-1H-imidazole-2-carboxamido)benzo[d]oxazole-2-carboxylate] | > 1000 | > 1000 | > 1000 | – | – | – |
| COc1cc2c(cc1OCCCC(=O)Nc1cc(C(=O)Nc3ccc(-c4cc(C(=O)Nc5ccccc5)n(C)c4)cc3)n(C)c1)NC[C@@H]1CCCCN1C2=O [Compound 67, (S)-4-(4-((2-Methoxy-12-oxo-5,6,6a,7,8,9,10,12-octahydrobenzo[e]pyrido-[1,2-a][1,4]diazepin-3-yl)oxy)butanamido)-1-methyl-N-(4-(1-methyl-5-(phenylcarbamoyl)-1H-pyrrol-3-yl)phenyl)-1H-pyrrole-2-carboxamide] | – | – | – | 57.2 | 25.9 | 29.4 |
| COc1cc2c(cc1OCCCC(=O)Nc1cc(C(=O)Nc3ccc(-c4cc(C(=O)Nc5ccc(NC(C)=O)cc5)n(C)c4)cc3)n(C)c1)NC[C@@H]1CCCCN1C2=O [Compound 70, (S)—N-(4-Acetamidophenyl)-4-(4-(4-(4-((2-methoxy-12-oxo-5,6,6a,7,8,9,10, 12-octahydrobenzo[e]pyrido[1,2-a][1,4]diazepin-3-yl)oxy)butanamido)-1-methyl-1H-pyrrole-2-carboxamido)phenyl)-1-methyl-1H-pyrrole-2-carboxamide] | 93.6 | 11.3 | 42.5 | – | – | – |
| COc1cc2c(cc1OCCCC(=O)Nc1cc(C(=O)Nc3ccc(-c4cc(C(=O)Nc5ccc(N)cc5)n(C)c4)cc3)n(C)c1)NC[C@@H]1Cc3ccccc3N1C2=O [Compound 106, (S)—N-(4-Aminophenyl)-4-(4-(4-(4-((8-methoxy-6-oxo-11,12,12a,13-tetrahydro-6H-benzo[5,6][1,4]diazepino[1,2-a]indol-9-yl)oxy)butanamido)-1-methyl-1H-pyrrole-2-carboxamido)phenyl)-1-methyl-1H-pyrrole-2-carboxamide] | 84 | 26.7 | 24 | – | – | – |
| COc1cc2c(cc1OCCCC(=O)Nc1cc(C(=O)Nc3ccc(-c4cc(C(=O)Nc5ccc(N)cc5)n(C)c4)cc3)n(C)c1)NC[C@@H]1Cc3ccccc3CN1C2=O [Compound 119, (S)—N-(4-Aminophenyl)-4-(4-(4-(4-((2-methoxy-14-oxo-5,6,6a,7,12,14-hexahydrobenzo[5,6][1,4]diazepino[1,2-b]isoquinolin-3-yl)oxy)butanamido)-1-methyl-1H-pyrrole-2-carboxamido)phenyl)-1-methyl-1H-pyrrole-2-carboxamide] | 266 | 43.1 | 173 | – | – | – |
| COC(=O)c1cc(-c2ccc(NC(=O)c3cc(NC(=O)CCCOc4cc5c(cc4OC)C(=O)N4Cc6ccccc6C[C@H]4CN5)cn3C)cc2)cn1C [Compound 121, Methyl (S)-4-(4-(4-(4-((2-methoxy-14-oxo-5,6,6a,7,12,14-hexahydrobenzo-[5,6][1,4]diazepino[1,2-b]isoquinolin-3-yl)oxy)butanamido)-1-methyl-1H-pyrrole-2-carboxamido)phenyl)-1-methyl-1H-pyrrole-2-carboxylate] | 43.8 | 13.4 | 11.6 | – | – | – |
